Laboratory results as given in patent publication US20210338650A1, “CXCL10 Inhibitors” (LAPKO INC, dba AFECTA PHARMACEUTICALS, priority 2020, published 2021).

Assays:
[1] = tested on: human subjects suffering from dermatitis; test: Clinical treatment of dermatitis/eczema with topical cream, Investigator's Global Assessment (IGA); assay type: in vivo; conditions: 7% topical cream twice per day, 3-4 weeks, vs area treated with cream base alone
From the text: To test the effect of the compounds on treatment of human dermatologic disorders associated with increased CXCL10 production by keratinocytes, Compound 97 and Compound 98 were formulated with stearic acid, lanolin (anhydrous), mineral oil and triethanolamine into a topically applied cream at a concentration of 7%. The compounds in the cream base were applied topically twice per day to human subjects suffering from dermatitis in an area of the skin with active skin lesions for 3-4 weeks. The control was the topical cream base composition without the active compounds. Outcome was measured by an experienced clinical observer as assessed by visible reduction or disappearance of the lesions as assessed in the treated area vs the control area treated only with the cream base alone using Investigator's Global Assessment (IGA) scale.

CXCL10 = CXCL10 levels in retina tissue of STZ diabetic rats, topical eye drops; assay type: in vivo; conditions: eye drops 1-5%, 20 μL three times per day, 30 days, retina homogenate ELISA, vs control eye
From the text: CXCL10 expression is associated with age related and diabetes induced retinopathy. A hallmark of these retinopathies is retinal vascular leakage (i.e. increased retinal vascular permeability) thought to induced by CXCL10. To test the in vivo effect of the compounds on treatment of retinopathies associated with increased CXCL10 levels, diabetes was induced in rats by treatment with Streptozotocin (STZ) according established methods (Akbarzadeh et al, J Clin Biochem. 2007 September; 22(2): 60-64) Testing began once the diabetes had been established in the animals. Compounds were formulated into a topically applied eye drop solution containing 1-5% of compounds 91 and 108 along with ethylene glycol, sodium lauryl sulfate, hyaluronic acid, and sterile water at pH 7.0. […] CXCL10 expression was measured in retina tissue homogenate and retinal vascular permeability was assayed using the measurement of leakage of Evans Blue dye from retinal vessels, a well-established method (Invest Ophthalmol Vis Sci 2001 March; 42: 789-794).

In the case of `Cc1c(OCC(F)(F)F)ccnc1C[S+]([O-])c1nc2ccccc2[nH]1` (stereo not shown) [Compound 97], the “dermatitis/eczema lesions, Investigator's Global Assessment (IGA)” value [1] is reported as “pronounced effect on reducing the dermatitis/eczema”.

With `COc1ccnc(C[S+]([O-])c2nc3cc(OC(F)F)ccc3[nH]2)c1OC` (stereo not shown) [Compound 108] the “amount of CXCL10 produced by the retina” value (CXCL10) was “significant reduction”.

For `COCCCOc1ccnc(C[S+]([O-])c2nc3ccccc3[nH]2)c1C` (stereo not shown) [Compound 98], the “dermatitis/eczema lesions, Investigator's Global Assessment (IGA)” value [1] was “pronounced effect on reducing the dermatitis/eczema”.

With `COc1ccc2[nH]c([S+]([O-])Cc3ncc(C)c(OC)c3C)nc2c1` (stereo not shown) [Compound 91] the “amount of CXCL10 produced by the retina” value (CXCL10) was “significant reduction”.
